Laboratory results from US10266497B2 (ABIDE THERAPEUTICS, INC., priority 2017, dated 2019).
pIC50: −log10 of the molar value.

Assays:
MAGL [1] = biological target: T1, MAGL (Homo sapiens, UniProt Q99685); experiment: In vitro competitive activity-based protein profiling, MAGL, human; conditions: for inhibition at 1 µM: read-out: MAGL % inh. 1 μM (human)
T1 sequence (Q99685 1-303): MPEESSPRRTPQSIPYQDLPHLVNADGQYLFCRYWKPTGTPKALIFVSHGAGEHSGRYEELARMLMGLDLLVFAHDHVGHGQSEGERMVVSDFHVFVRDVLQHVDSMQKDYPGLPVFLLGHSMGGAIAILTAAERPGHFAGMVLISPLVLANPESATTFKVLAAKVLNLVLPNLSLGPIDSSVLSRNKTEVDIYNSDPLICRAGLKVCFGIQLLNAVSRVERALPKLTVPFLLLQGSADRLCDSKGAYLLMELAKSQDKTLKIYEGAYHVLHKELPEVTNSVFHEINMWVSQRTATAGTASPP

MAGL [2] = biological target: T2, MAGL (Mus musculus, UniProt O35678); experiment: In vitro competitive activity-based protein profiling, MAGL, mouse; conditions: read-out: MAGL % inh. 1 μM (mouse)
T2 sequence (O35678 1-303): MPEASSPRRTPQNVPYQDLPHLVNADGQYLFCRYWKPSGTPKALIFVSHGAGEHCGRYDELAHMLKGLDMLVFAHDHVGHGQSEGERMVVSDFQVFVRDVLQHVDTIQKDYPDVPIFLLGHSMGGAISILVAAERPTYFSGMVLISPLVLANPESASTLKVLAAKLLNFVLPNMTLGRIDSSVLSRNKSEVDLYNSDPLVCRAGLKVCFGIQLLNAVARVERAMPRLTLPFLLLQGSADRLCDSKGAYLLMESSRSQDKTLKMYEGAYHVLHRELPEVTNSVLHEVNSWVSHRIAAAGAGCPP

| SMILES | inhibition at 1 µM (MAGL [1]) [%] | inhibition at 1 µM (MAGL [2]) [%] | pIC50 (MAGL [1]) |
| --- | --- | --- | --- |
| O=C(O)c1ccn(C(=O)N2CCC(OCc3cccc(N4CCCC4)c3)CC2)n1 [Example 226, 1-(4-((3-(pyrrolidin-1-yl)benzyl)oxy)piper-idine-1-carbonyl)-1H-pyrazole-3-carboxylic acid] | > 75 | > 75 |  |
| O=C(O)c1ccn(C(=O)N2CCC3(CCN(Cc4cccc(Cl)c4)C3)CC2)n1 [Example 227, 1-(2-(3-chlorobenzyl)-2,8-diazaspiro[4.5]decane-8-carbonyl)-1H-pyrazole-3-carboxylic acid] | > 75 | 25 to 50 |  |
| O=C(O)c1ccn(C(=O)N2CCN(Cc3cccc(Oc4cccnn4)c3)CC2)n1 [Example 229, 1-(4-(3-(pyridazin-3-yloxy)benzyl)piper-azine-1-carbonyl)-1H-pyrazole-3-carboxylic acid] | 25 to 50 | 0 to 25 |  |
| O=C(O)c1ccn(C(=O)N2C[C@H]3C[C@H](Oc4cccc(C(F)(F)F)c4)C[C@H]3C2)n1 [Example 231, 1-(trans-5-(3-(trifluoromethyl)phenoxy)octahydro-cyclopenta[c]pyrrole-2-carbonyl)-1H-pyrazole-3-carboxylic acid] | > 75 | > 75 |  |
| O=C(O)c1ccn(C(=O)N2C[C@H]3C[C@H](Oc4cccc(C5CCCC5)c4)C[C@H]3C2)n1 [Example 232, 1-(trans-5-(3-cyclopentylphenoxy)octahydrocyclopenta [c]pyrrole-2-carbonyl)-1H-pyrazole-3-carboxylic acid] | > 75 | > 75 |  |
| O=C(O)c1ccn(C(=O)N2C[C@H]3C[C@H](Oc4cccc(N5CCCC5)c4)C[C@H]3C2)n1 [Example 234, 1-(trans-5-(3-(pyrrolidin-1-yl)phenoxy)octa-hydrocyclopenta[c]pyrrole-2-carbonyl)-1H-pyrazole-3-carboxylic acid] | > 75 | > 75 |  |
| Cc1c(COC2CCN(C(=O)n3ccc(C(=O)O)n3)CC2)cccc1C(F)(F)F [Example 235, 1-(4-((2-methyl-3-(trifluoromethyl)benzyl)oxy)piper-idine-1-carbonyl)-1H-pyrazole-3-carboxylic acid] | > 75 | > 75 |  |
| Cc1ccc(COC2CCN(C(=O)n3ccc(C(=O)O)n3)CC2)cc1C(F)(F)F [Example 236, 1-(4-((4-methyl-3-(trifluoromethyl)benzyl)oxy)piper-idine-1-carbonyl)-1H-pyrazole-3-carboxylic acid] | > 75 | > 75 |  |
| O=C(O)c1ccn(C(=O)N2C[C@H]3C[C@H](Oc4ccccc4-c4ccccc4)C[C@H]3C2)n1 [Example 239, 1-(trans-5-([1,1′-biphenyl]-2-yloxy)octahydro-cyclopenta[c]pyrrole-2-carbonyl)-1H-pyrazole-3-carboxylic acid] | > 75 | > 75 |  |
| O=C(O)c1ccn(C(=O)N2C[C@H]3C[C@H](Oc4ccc(-c5ccccc5)cc4)C[C@H]3C2)n1 [Example 240, 1-(trans-5-([1,1′-biphenyl]-4-yloxy)octahydro-cyclopenta[c]pyrrole-2-carbonyl)-1H-pyrazole-3-carboxylic acid] | > 75 | > 75 |  |
| O=C(O)c1ccn(C(=O)N2C[C@H]3C[C@H](Oc4cccc(-c5ccccn5)c4)C[C@H]3C2)n1 [Example 242, 1-(trans-5-(3-(pyridin-2-yl)phenoxy)octa-hydrocyclopenta[c]pyrrole-2-carbonyl)-1H-pyrazole-3-carboxylic acid] | > 75 | > 75 |  |
| O=C(O)c1ccn(C(=O)N2C[C@H]3C[C@H](Oc4ccccc4-c4cccnc4)C[C@H]3C2)n1 [Example 244, 1-(trans-5-(2-(pyridin-3-yl)phenoxy)octa-hydrocyclopenta[c]pyrrole-2-carbonyl)-1H-pyrazole-3-carboxylic acid] | > 75 | > 75 |  |
| Cc1cc(-c2ccccc2)ccc1CN1CCN(C(=O)n2ccc(C(=O)O)n2)[C@@H](C)C1 [Example 246, (S)-1-(2-methyl-4-((3-methyl-[1,1′-biphenyl]-4-yl)methyl)piperazine-1-carbonyl)-1H-pyrazole-3-carboxylic acid] | > 75 | > 75 | 6.00 to 7.00 |
| O=C(O)c1ccn(C(=O)N2C[C@H]3C[C@H](Oc4cccc(-c5ccnnc5)c4)C[C@H]3C2)n1 [Example 248, 1-(trans-5-(3-(pyridazin-4-yl)phenoxy)octa-hydrocyclopenta[c]pyrrole-2-carbonyl)-1H-pyrazole-3-carboxylic acid] | 25 to 50 | 0 to 25 |  |
| C[C@@H]1CN(Cc2ccc(-c3ccccc3)cc2F)CCN1C(=O)n1ccc(C(=O)O)n1 [Example 253, (R)-1-(4-((3-fluoro-[1,1′-biphenyl]-4-yl)methyl)-2-methylpiperazine-1-carbonyl)-1H-pyrazole-3-carboxylic acid] | > 75 | > 75 |  |
| Cc1cc(O[C@H]2C[C@@H]3CN(C(=O)n4ccc(C(=O)O)n4)C[C@@H]3C2)ccc1C(F)(F)F [Example 254, 1-(trans-5-(3-methyl-4-(trifluoromethyl)phenoxy)octahydro-cyclopenta[c]pyrrole-2-carbonyl)-1H-pyrazole-3-carboxylic acid] | > 75 | > 75 |  |
| O=C(O)c1ccn(C(=O)N2C[C@H]3C[C@@H](OCc4cccc(C(F)(F)F)c4)C[C@H]3C2)n1 [Example 255, 1-(trans-5-((3-(trifluoromethyl)benzyl)oxy)octa-hydrocyclopenta[c]pyrrole-2-carbonyl)-1H-pyrazole-3-carboxylic acid] | > 75 | > 75 | 6.00 to 7.00 |
| CN(Cc1cccc(C(F)(F)F)c1)C1(C)CCN(C(=O)n2ccc(C(N)=O)n2)CC1 [Example 258, 1-(4-methyl-4-(methyl(3-(trifluoromethyl)benzyl)amino)piper-idine-1-carbonyl)-1H-pyrazole-3-carboxamide] | > 75 | > 75 |  |
| C[C@H]1C[C@H](N(C)Cc2cccc(C(F)(F)F)c2)CCN1C(=O)n1ccc(C(N)=O)n1 [Example 259, 1-((2S,4R)-2-methyl-4-(methyl(3-(trifluoromethyl)benzyl)amino)piperidine-1-carbonyl)-1H-pyrazole-3-carboxamide] | > 75 | > 75 |  |
| O=C(O)c1ccn(C(=O)N2C[C@H]3C[C@H](Oc4cccc(-c5nccs5)c4)C[C@H]3C2)n1 [Example 261, 1-(trans-5-(3-(thiazol-2-yl)phenoxy)octa-hydrocyclopenta[c]pyrrole-2-carbonyl)-1H-pyrazole-3-carboxylic acid] | > 75 | > 75 |  |
| O=C(O)c1ccn(C(=O)N2CCN(Cc3ccc(F)c(Oc4ccccc4)c3)CC2)n1 [Example 263, 1-(4-(4-fluoro-3-phenoxybenzyl)pi-perazine-1-carbonyl)-1H-pyrazole-3-carboxylic acid] | > 75 | > 75 |  |
